Legend:
[1] = Stability of indirubin prodrugs in simulated fluids (FaSSIF, FaSSGF), 24 h at 37° C., UPLC-MS; assay type: physicochemical
Description: (§1) 10.41 g fasted state simulated intestinal fluid (FaSSIF) buffer concentrate was dissolved in 240.3 g deionized water and 560 mg FaSSIF powder added. The mixture was stirred until complete dissolution observed. The test compound (approx. 1-3 mg) was placed in 5.00 mL of FaSSIF solution. Samples of the solution with the test compound were taken after 24 hours in at 37° C. (oven-controlled temperature).
as §1, with “36.78” for “10.41”, “gastric” for “intestinal”, “(FaSSGF)” for “(FaSSIF)”, “961.9” for “240.3”, “60” for “560”, “FaSSGF” for “FaSSIF”
UPLC-MS analysis of the samples taken at 24 hours was carried out on a Waters Acquity UPLC system consisting of an Acquity I-Class Sample Manager-FL, Acquity I-Class Binary Solvent Manager and an Acquity UPLC Column Manager. UV detection was afforded using an Acquity UPLC PDA detector (scanning from 210 to 400 nm), whilst mass detection was achieved using an Acquity QDa detector (mass scanning from 100-1250 Da; positive and negative modes simultaneously), and ELS detection was achieved using an Acquity UPLC ELS Detector. A Waters Acquity UPLC BEH C18 column (2.1 Å˜50 mm, […]) was used to separate the analytes. Samples were prepared by dissolution (with or without sonication) into 1 mL of 50% (v/v) MeCN in water. The resulting solutions were then filtered through a […] syringe filter before submitting for analysis. All of the solvents, including formic acid and 36% ammonia solution, were purchased as the HPLC grade.

[2] = Indirubin solubility in biorelevant media (FaSSIF, FaSSGF), HPLC; assay type: physicochemical; conditions: FaSSGF and FaSSIF
Description: Biorelevant media was prepared as per the supplier's (Biorelevant) method, using FaSSIF/FeSSIF/FaSSGF powders. In brief, FaSSGF media was prepared using 0.06 g/L FaSSIF/FeSSIF/FaSSGF powder in 2 g/L NaCl solution, pH adjusted to 1.6 with 1N HCl. FaSSIF media was prepared with 2.24 g/L FaSSIF/FeSSIF/FaSSGF powder in sodium phosphate buffer, pH adjusted to 6.5 with 1N NaOH. (Sodium phosphate buffer prepared as a 0.42 g/L NaOH, 3.95 g/L NaH2PO4·H2O, 6.19 g/L NaCl solution).
Solubility assessments were performed as follows. An individual flask was prepared for each media and time point. Flasks were placed in a shaking water bath kept at 37° C. Flasks were removed from the bath at specified time points of 1 hour, 4 hours and 24 hours, allowed to cool, and an aliquot taken and filtered.

Structure (SMILES) | Fraction (percent) of indirubin ([1]; FaSSGF 37° C. 24 h) | Fraction (percent) of starting material (SM) ([1]; FaSSGF 37° C. 24 h) | Fraction (percent) of indirubin ([1]; FaSSIF 37° C. 24 h) | Fraction (percent) of starting material (SM) ([1]; FaSSIF 37° C. 24 h) | Solubility in the simulated fluids [2]
Cl.NCCNC(=O)N1C(=O)/C(=C2\Nc3ccccc3C2=O)c2ccccc21 | 0% | 100% | 0% | 100% | –
CS(=O)(=O)NCCNC(=O)N1C(=O)/C(=C2\Nc3ccccc3C2=O)c2ccccc21 | 0% | 100% | 0% | 100% | –
CN1CCN(CN2C(=O)/C(=C3\Nc4ccccc4C3=O)c3ccccc32)CC1 [Compound 10] | – | – | – | – | soluble in the simulated fluids
COCN1C(=O)/C(=C2\Nc3ccccc3C2=O)c2ccccc21 | 2% | 100% | 2% | 91% | –
O=C1/C(=C2/C(=O)N(C(=O)NCCNS(=O)(=O)C(F)(F)F)c3ccccc32)Nc2ccccc21 | 1% | 93% | 0% | 100% | –
CC(=O)NCCNC(=O)N1C(=O)/C(=C2\Nc3ccccc3C2=O)c2ccccc21 | 0% | 100% | 0% | 100% | –
CCOC(=O)N1C(=O)/C(=C2\Nc3ccccc3C2=O)c2ccccc21 | 0% | 100% | 0% | 100% | –
CCOC(=O)CCC(=O)N1C(=O)/C(=C2\Nc3ccccc3C2=O)c2ccccc21 | 0% | 100% | 0% | 100% | –
O=C1/C(=C2/C(=O)N(CSc3ccccc3)c3ccccc32)Nc2ccccc21 | 0% | 100% | 0% | 100% | –
O=C1/C(=C2/C(=O)N(C(=O)CCCN3CCOCC3)c3ccccc32)Nc2ccccc21 | 0% | 100% | 0% | 100% | –
O=C1/C(=C2/C(=O)N(COS(=O)(=O)O)c3ccccc32)Nc2ccccc21 [drawing 224] | – | – | 100% | 0% | –
O=C1/C(=C2/C(=O)N(CS(=O)(=O)c3ccccc3)c3ccccc32)Nc2ccccc21 | 0% | 100% | 0% | 100% | –
CC(=O)OCN1C(=O)/C(=C2\Nc3ccccc3C2=O)c2ccccc21 | 3% | 94% | 0% | 100% | –
CCN(CC)CN1C(=O)/C(=C2\Nc3ccccc3C2=O)c2ccccc21 [Compound 9] | – | – | – | – | soluble in the simulated fluids
O=C1/C(=C2/C(=O)N(CO)c3ccccc32)Nc2ccccc21 [drawing 219] | 13% | 87% | 100% | 0% | –
O=C(O)CCC(=O)OCN1C(=O)/C(=C2\Nc3ccccc3C2=O)c2ccccc21 | 0% | 100% | 0% | 100% | –
